Results on 18 molecules are retold here after patent US20260285853A1, “COMPOUNDS AND METHODS FOR MODULATING SPLICING” (REMIX THERAPEUTICS INC., priority 2023, published 2026).

A word on the AC50: it is the concentration giving half of the maximal activity seen. As usually defined, the IC50 is the concentration that gives 50% inhibition. Usually GI50 stands for the concentration giving 50% growth inhibition.

Common to all, as to format: cell-based
Assay [1] has as its system HTT mRNA. Kind of assay: Splicing RT-qPCR assay (THP), Table 2A. The settings on record: Table 2A, THP; for AC50: HTT alternative junction (AJ) mRNA, read-out: HTT AJ (AC50, increase in alternative junction mRNA); for IC50: HTT canonical junction (CJ) mRNA, read-out: HTT CJ (IC50, decrease in canonical junction mRNA). Background: Real-time PCR tracks product formation cycle by cycle.

Assay [2] relates to MYB mRNA. Kind of assay: Splicing RT-qPCR assay (THP), Table 2A. The settings on record: Table 2A, THP; for AC50: MYB alternative junction (AJ) mRNA, read-out: MYB AJ (AC50, increase in alternative junction mRNA); for IC50: MYB canonical junction (CJ) mRNA, read-out: MYB CJ (IC50, decrease in canonical junction mRNA).
Assay [3] relates to MYB mRNA. Put plainly: Gene panel canonical junction qPCR assay, decrease in CJ mRNA, Table 3. To be noted: decrease in CJ mRNA levels, canonical junction qPCR, gene panel. The essentials:
(§1)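 IC50 is the concentration giving 50% response in decrease of the canonical junction transcript, fitted with a 4-parameter logistic equation. Transcripts were quantified by RT-qPCR in A673 or K562 cells after 24 h exposure to compounds dosed up to 10 uM in 3-fold steps.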

Assay [4] concerns HTT mRNA. The description is as above. The settings on record: decrease in CJ mRNA levels, canonical junction qPCR, gene panel. The essentials:
as §1

Assay [5] deals with SH-SY5Y (human neuroblastoma) cells. Put plainly: Cell viability, Cell Titer Glo 2.0 assay. To be noted: read-out: Viability SHSY5Y.3 GI50. The essentials:
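Steps: serial DMSO dilution of compound, 1:100 dilution into medium, addition to cells (0.1% DMSO final). Incubate 72 h at 37 °C, 5% CO2. Assay with CellTiter-Glo 2.0 reagent.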
On the technique in general: Cellular ATP, detected with luciferase, serves as a proxy for viable cell number.

For the molecule `COc1nc2c(C(=O)Nc3cc(F)c4nn(C)cc4c3)ccc(N3C[C@H](C)N(C)[C@@H](C)C3)c2s1` [Compound 767, N-(7-fluoro-2-methyl-indazol-5-yl)-2-methoxy-7-[(3S,5S)-3,4,5-trimethylpiperazin-1-yl]-1,3-benzothiazole-4-carboxamide], the AC50 is 1 to 10 µM in assay [1] and below 0.1 µM in assay [2]. Moreover, the IC50 in assay [1] is 1 to 10 µM; in assay [2], below 0.1 µM; in assay [3], below 0.1 µM; in assay [4] it was 1 to 10 µM. Moreover, in assay [5], the GI50 lay within 0.1 to 1 µM.
With `COc1nc2c(C(=O)Nc3cc(F)c4nn(C)cc4c3)ccc(N3CCC4(CCCN4)CC3)c2s1` [Compound 768], the AC50 in assay [1] and in assay [2] was below 0.1 µM throughout. Further, the IC50 in assay [1], in assay [2], in assay [3] and in assay [4] was below 0.1 µM throughout. Moreover, the GI50 in assay [5] lay within 0.1 to 1 µM.
Turning to `COc1nc2c(C(=O)Nc3cc(F)c4nn(C)cc4c3)ccc(N3CC[C@@H](NC(C)(C)C)C3)c2s1` [Compound 769], the AC50 is 0.1 to 1 µM in assay [1] and below 0.1 µM in assay [2]. Also, the IC50 in assay [1] was 0.1 to 1 µM; in assay [2], below 0.1 µM; in assay [3] it was below 0.1 µM; in assay [4], 0.1 to 1 µM. The GI50 in assay [5] lay within 0.1 to 1 µM.
Turning to `COc1nc2c(C(=O)Nc3cc(F)c4nn(C)cc4c3)ccc(N3CC[C@H](NC(C)(C)C)C3)c2s1` [Compound 770], the AC50 in assay [1] and in assay [2] was 0.1 to 1 µM in each case. For the same molecule, the IC50 in assay [1], in assay [2], in assay [3] and in assay [4] was 0.1 to 1 µM each time. Further, the GI50 in assay [5] was in the range of 0.1 to 1 µM.
On to `COc1nc2c(C(=O)Nc3cc(F)c4nn(C)cc4c3)ccc(N3CCNC(C)C3C)c2s1` (stereo not drawn) [Compound 771, 7-(2,3-dimethylpiperazin-1-yl)-N-(7-fluoro-2-methyl-indazol-5-yl)-2-methoxy-1,3-benzothiazole-4-carboxamide], for which the AC50 was above 10 µM in assay [1] and 0.1 to 1 µM in assay [2]. Also, the IC50 in assay [1] is 1 to 10 µM; in assay [2], 0.1 to 1 µM; in assay [3] it was 0.1 to 1 µM; in assay [4], 1 to 10 µM. The GI50 in assay [5] lay within 0.1 to 1 µM.
On to `COc1nc2c(C(=O)Nc3cc(F)c4nn(C)cc4c3)ccc(N3CC(C)NCC3C)c2s1` (stereo not drawn) [Compound 772, 7-(2,5-dimethylpiperazin-1-yl)-N-(7-fluoro-2-methyl-indazol-5-yl)-2-methoxy-1,3-benzothiazole-4-carboxamide], for which the results for the AC50 in assay [1] and in assay [2] were above 10 µM and 0.1 to 1 µM, respectively. In addition, the IC50 is above 10 µM in assay [1], 1 to 10 µM in assay [2], 1 to 10 µM in assay [3] and above 10 µM in assay [4]. In assay [5], the GI50 is 1 to 10 µM.
On to `Cc1cn2cc(NC(=O)c3ccc(N4CCC(NC5CC5)CC4)c4cn(C)nc34)nc2c(Cn2cccn2)n1` [Compound 773, 4-[4-(cyclopropylamino)-1-piperidyl]-2-methyl-N-[6-methyl-8-(pyrazol-1-ylmethyl)imidazo[1,2-a]pyrazin-2-yl]indazole-7-carboxamide], for which the AC50 in assay [1] and in assay [2] was 1 to 10 µM each time. Besides, the IC50 in assay [1], in assay [2], in assay [3] and in assay [4] was 1 to 10 µM throughout. In addition, the GI50 in assay [5] fell in the range of 1 to 10 µM.
For `Cc1cn2cc(NC(=O)c3ccc(N4CCC(NC5CC5)CC4)c4cn(C)nc34)nc2c(CN2CCCS2(=O)=O)n1` [Compound 774, 4-[4-(cyclopropylamino)-1-piperidyl]-N-[8-[(1,1-dioxo-1,2-thiazolidin-2-yl)methyl]-6-methyl-imidazo[1,2-a]pyrazin-2-yl]-2-methyl-indazole-7-carboxamide], the AC50 in assay [1] and in assay [2] was above 10 µM throughout. In addition, the IC50 in assay [1], in assay [2], in assay [3] and in assay [4] was above 10 µM throughout. For the same molecule, the GI50 in assay [5] was above 10 µM.
With `Cc1cn2cc(NC(=O)c3ccc(N4CCC(NC5CC5)CC4)c4cn(C)nc34)nc2c(Cn2cnc(C(N)=O)c2)n1` [Compound 775, N-(8-((4-carbamoyl-1H-imidazol-1-yl)methyl)-6-methylimidazo[1,2-a]pyrazin-2-yl)-4-(4-(cyclopropylamino)piperidin-1-yl)-2-methyl-2H-indazole-7-carboxamide 2,2,2-trifluoroacetate], the AC50 in assay [1] and in assay [2] was above 10 µM each time. For the same molecule, the IC50 in assay [1], in assay [2], in assay [3] and in assay [4] was above 10 µM in each case. The GI50 in assay [5] was above 10 µM.
As for `Cc1cn2cc(NC(=O)c3ccc(N4CCC(NC5CC5)CC4)c4cn(C)nc34)nc2c(CCN(C)C)n1` [Compound 776], the AC50 in assay [1] and in assay [2] was above 10 µM in each case. For the same molecule, the half-maximal inhibitory concentration (IC50) in assay [1], in assay [2], in assay [3] and in assay [4] was above 10 µM in each case. For the same molecule, the GI50 in assay [5] was 1 to 10 µM.
As for `Cc1cn2cc(NC(=O)c3ccc(N4CCC(N(C)C5CC5)CC4)c4cn(C)nc34)nc2c(CNS(C)(=O)=O)n1` [Compound 777], the AC50 in assay [1] and in assay [2] was 1 to 10 µM in each case. Further, the IC50 in assay [1], in assay [2], in assay [3] and in assay [4] was 1 to 10 µM in each case. Further, the GI50 in assay [5] lay within 1 to 10 µM.
On to `Cc1cn2cc(NC(=O)c3ccc(N4CCC(NC5CC5)CC4)c4cn(C)nc34)nc2c(CCNS(C)(=O)=O)n1` [Compound 778], for which the AC50 in assay [1] and in assay [2] was above 10 µM in each case. Besides, the IC50 in assay [1], in assay [2], in assay [3] and in assay [4] was above 10 µM in each case. Besides, the GI50 in assay [5] was above 10 µM.
Regarding `CC(=O)NCc1cc(NC(=O)c2ccc(N3CCC(NC4CC4)CC3)c3cn(C)nc23)cc2cn(C)nc12` [Compound 779], the results for the AC50 in assay [1] and in assay [2] were above 10 µM and 0.1 to 1 µM, respectively. The IC50 in assay [1] is above 10 µM; in assay [2], 0.1 to 1 µM; in assay [3] it was 0.1 to 1 µM; in assay [4], above 10 µM. The GI50 in assay [5] was above 10 µM.
Take `Cc1nc2c(C(=O)Nc3cc(F)c4nn(C)cc4c3)ccc(N3C[C@H](C)N[C@@H](C)C3)c2s1` [Compound 780]: the concentration at half-maximal activity (AC50) is 0.1 to 1 µM in assay [1] and below 0.1 µM in assay [2]. Besides, the IC50 in assay [1] is 0.1 to 1 µM; in assay [2], below 0.1 µM; in assay [3] it was below 0.1 µM; in assay [4] it was 0.1 to 1 µM. In addition, the GI50 in assay [5] was below 0.1 µM.
Turning to `Cc1cn2cc(NC(=O)c3ccc(N4CCC(NC5CC5)CC4)c4cn(C)nc34)nc2c(Cc2cnc(Cl)s2)n1` [Compound 781], the AC50 in assay [1] and in assay [2] was above 10 µM throughout. Moreover, the IC50 in assay [1], in assay [2], in assay [3] and in assay [4] was above 10 µM each time. Moreover, the GI50 in assay [5] was 1 to 10 µM.
With `COc1nc2c(C(=O)Nc3cn4c(C)nc(C)cc4n3)ccc(N3C[C@H](C)N[C@@H](C)C3)c2s1` [Compound 782, N-(5,7-dimethylimidazo[1,2-c]pyrimidin-2-yl)-7-[(3S,5S)-3,5-dimethylpiperazin-1-yl]-2-methoxy-1,3-benzothiazole-4-carboxamide], the AC50 in assay [1] is above 10 µM; in assay [2], 0.1 to 1 µM. Also, the IC50 was above 10 µM in assay [1], 0.1 to 1 µM in assay [2], 0.1 to 1 µM in assay [3] and above 10 µM in assay [4]. In addition, in assay [5], the GI50 was in the range of 1 to 10 µM.
`COc1nc2c(C(=O)Nc3cc(CO)c4nn(C)cc4c3)ccc(N3C[C@H](C)N[C@@H](C)C3)c2s1` [Compound 783, 7-((3S,5S)-3,5-dimethylpiperazin-1-yl)-N-(7-(hydroxymethyl)-2-methyl-2H-indazol-5-yl)-2-methoxybenzo[d]thiazole-4-carboxamide]: the AC50 in assay [1] was 1 to 10 µM; in assay [2] it was below 0.1 µM. Moreover, the IC50 in assay [1] is above 10 µM; in assay [2] it was below 0.1 µM; in assay [3], below 0.1 µM; in assay [4], above 10 µM. The GI50 in assay [5] lay in the range of 0.1 to 1 µM.
Consider `COc1nc2c(C(=O)Nc3cc(OC)c4nn(C)cc4c3)ccc(N3C[C@H](C)N[C@@H](C)C3)c2s1` [Compound 784, 7-((3S,5S)-3,5-dimethylpiperazin-1-yl)-2-methoxy-N-(7-methoxy-2-methyl-2H-indazol-5-yl)benzo[d]thiazole-4-carboxamide], for which the AC50 in assay [1] is 0.1 to 1 µM; in assay [2], below 0.1 µM. Also, the IC50 in assay [1] was 0.1 to 1 µM; in assay [2] it was below 0.1 µM; in assay [3], below 0.1 µM; in assay [4], 0.1 to 1 µM. Moreover, the GI50 in assay [5] is below 0.1 µM.
